Here are results for four compounds from ChEMBL document CHEMBL3588780, “Quinolyl analogues of norlobelane: novel potent inhibitors of [(3)H]dihydrotetrabenazine binding and [(3)H]dopamine uptake at the vesicular monoamine transporter-2” (Bioorg Med Chem Lett, 2015).

Experiment [1] deals with T1, Synaptic vesicular amine transporter (Rattus norvegicus, UniProt Q01827). Description: Inhibition of VMAT2-mediated [3H]DA uptake in rat brain synaptic vesicles by liquid scintillation spectrometry. In kind it is tissue-based.
The target of experiment [2] is Synaptic vesicular amine transporter (Rattus norvegicus) (UniProt Q01827). Description: Ratio of Ki for displacement of [3H]DTBZ from VMAT2 in rat whole brain to Ki for inhibition of VMAT2-mediated [3H]DA uptake in rat brain synaptic vesicles. In kind it is tissue-based.
For experiment [3], the target named is T1, Synaptic vesicular amine transporter. As to the kind of experiment: Displacement of [3H]DTBZ from VMAT2 in rat whole brain by liquid scintillation spectrometry. (In general: Displacement assays read how much labelled ligand stays bound in the presence of the test substance.)
The target in experiment [4] is Synaptic vesicular amine transporter (Rattus norvegicus) (UniProt Q01827). As to the kind of experiment: Displacement of [3H]DTBZ from VMAT2 in rat whole brain relative to quinlobelane.

As a reminder, the pKi is −log10 of the Ki, conventionally taken in molar units.

pKi: −log10 of the molar value.

Chain of Synaptic vesicular amine transporter (Rattus norvegicus) (Q01827 whole entry): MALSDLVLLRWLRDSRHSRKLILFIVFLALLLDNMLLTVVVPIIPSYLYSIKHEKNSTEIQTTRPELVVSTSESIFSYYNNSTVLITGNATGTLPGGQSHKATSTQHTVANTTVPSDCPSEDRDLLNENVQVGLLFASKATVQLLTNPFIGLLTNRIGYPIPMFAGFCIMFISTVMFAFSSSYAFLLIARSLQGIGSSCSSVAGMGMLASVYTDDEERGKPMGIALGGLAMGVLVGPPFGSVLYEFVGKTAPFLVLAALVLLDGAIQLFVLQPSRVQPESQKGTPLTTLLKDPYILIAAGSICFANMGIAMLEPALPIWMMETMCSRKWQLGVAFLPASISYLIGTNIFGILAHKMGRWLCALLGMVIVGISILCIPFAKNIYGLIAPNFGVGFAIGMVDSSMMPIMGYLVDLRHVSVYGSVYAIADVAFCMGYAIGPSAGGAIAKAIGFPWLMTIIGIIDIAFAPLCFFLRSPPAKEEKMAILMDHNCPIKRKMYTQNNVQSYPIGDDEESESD
T1 sequence (Q01827 whole entry): as above

Consider `c1ccc2nc(CC[C@H]3CCC[C@@H](CCc4ccc5ccccc5n4)N3)ccc2c1`, for which the pKi in experiment [1] is 7.24; in experiment [3] it was 6.53. Also, the Ratio Ki in experiment [2] was 3; in experiment [4], 9.

Regarding `c1cnc2ccc(CC[C@H]3CCC[C@@H](CCc4ccc5ncccc5c4)N3)cc2c1`, the results for the pKi in experiment [1] and in experiment [3] were 7.38 and 6.19, respectively. Besides, the results for the Ratio Ki in experiment [2] and in experiment [4] were 3 and 4, respectively.

Regarding `OC[C@H](O)CN1[C@@H](CCc2ccc3ccccc3n2)CCC[C@H]1CCc1ccc2ccccc2n1`, the pKi in experiment [1] was 6.62; in experiment [3], 6.20. Further, the results for the Ratio Ki in experiment [2] and in experiment [4] were 3 and 4, respectively.

Take `c1ccc2c(CC[C@H]3CCC[C@@H](CCc4ccnc5ccccc45)N3)ccnc2c1`: the pKi in experiment [1] is 7.38; in experiment [3], 6.75.
